Values joined by “and” are separate entries in the source; they are usually repeats but may differ in a detail not shown here. Equal entries are not always repeated.
Experiments:
[1] = Protein binding in HEP-Fat cell culture media by rapid equilibrium dialysis; type: in vitro ADME; conditions: for fraction unbound: HEP-Fat cell culture media, HEP-FAT media, rapid-equilibrium dialysis
Description: Despite many on-going clinical trials, there is still no approved treatment for NASH, but emerging data provide confidence that NASH is a pharmacologically responsive disease. […] First, we set out to determine an optimal dosing strategy for each of the treatments based on an assessment of their physicochemical properties and pharmacokinetic behaviour within the MPS device (Table 1). Non-specific binding to the MPS device was determined after a 72 h incubation with each candidate drug at 1 μM (Table 1). Both candidate drugs were calculated to have less than 0.1% loss as a consequence of non-specific binding to the MPS device (Table 1). […] Because the hepatocytes within the MPS device are metabolically competent, we evaluated the half-life for each candidate drug in NASH microtissues.
To determine the metabolic turnover of obeticholic acid and elafibranor in the MPS platform, both compounds were incubated with liver microtissues for 48 h starting at 1 µM and media samples taken at regular intervals (AdooQ Bioscience, UK). The presence of each compound in the cell culture medium was quantified by liquid chromatography-tandem mass spectrometry (LC-MS/MS). Samples were separated using a Waters Acquity UPLC system with an ACE Excel C18-AR column and analysed on a Waters TQ-S Micro mass spectrometer against quantitative standard curves. Both compounds were also assessed for protein binding in HEP-Fat media using rapid equilibrium dialysis (RED) and quantified using the same LC-MS/MS methodology.

[2] = system: liver MPS NASH model (PHH, KC and HSC co-cultures, high fat); experiment: Fibrosis gene expression (Human Fibrosis RT2 Profiler PCR Arrays) in liver MPS NASH model dosed with OCA or ELF; type: cell-based; conditions: 10 days, individual cultures
Description: Fig. 3 Obeticholic acid and Elafibranor both modulate inflammatory and fibrosis phenotype in liver MPS NASH model and phenotype can additionally be reversed with dietary changes. PHH, KC and HSC co-cultures were cultured in the MPS platform under high fat conditions and dosed with varying concentrations of Obeticholic acid (OCA) and Elafibranor (ELF) QD or vehicle control (control) for 10 days, following an initial 4-day pre-culture phase. a The secreted cytokine profile from liver microtissues was compared by Luminex to determine the effects of each compound on the inflammatory profile of the liver with samples analysed at day 8 and 14 of the culture. Data were normalised by Z-transformation to allow comparison of all analytes and presented as a heatmap. b The expression of fibrosis-associated genes was analysed in total RNA from control, OCA and ELF treated liver microtissues (highest concentration for each compound) using Human Fibrosis RT2 Profiler PCR Arrays. Gene expression changes are expressed as a fold change over control. c Liver microtissues were stained for collagen-type I, α-SMA, nuclei (DAPI - blue), phalloidin (green) and imaged by confocal microscopy. Representative images are shown and scale bars 200 µm. d Staining of microtissue was quantified by measuring total fluorescence intensity throughout individual microtissues, each data point represents an average of all the microtissues imaged within an MPS scaffold (min 8, max 20 microtissues). e PHH, KC and HSC co-cultures were cultured in the MPS platform under high fat or lean conditions for 30 days. Cultures either remained in the same type of media throughout or were switched at day 15 from fat media to lean media (Fat -> Lean). Cell culture medium samples were analysed for the presence of IL-6, f MCP-1, g TIMP-1, which were measured by ELISA. h Microtissues were stained with Oil-Red O to determine fat loading during culture period, total stain was quantified by absorbance at 510 nm. All datapoints shown, either as box-whisker plots highlighting mean and min-max or with error bars highlighting means ± SD. All data from a minimum of three independent cultures; statistical comparisons made to control samples unless other comparison shown.
Total RNA was extracted from liver microtissue-containing scaffolds using TRIzol® Reagent (Ambion, USA) and a chloroform phase separation. RNA was precipitated from aqueous phase samples using 100% isopropanol and RNA pellets were resuspended in dH2O. Samples were analysed by both QPCR and RNAseq. For QPCR, reverse transcription and PCR were performed using RT2 First Strand Kit and Human Fibrosis RT² Profiler™ PCR Arrays (PAHS-120Z) (Qiagen, UK), with samples analysed on a Quantstudio 6 Real-Time PCR System (Applied Biosystems, UK). Ct values from samples were compared and normalised to house-keeping gene expression. The fold-change in each transcript represented on the array plate was determined using RT2 Profiler™ PCR Array Data Analysis (v. 3.5) Web Portal (Qiagen, UK).
Liver microtissues were cultured for 4 days in HEP-FAT medium, before dosing with obeticholic acid or elafibranor. Both compounds were dissolved in DMSO, diluted in cell culture medium (final DMSO concentration ≤1%) and added to microtissues during a full medium change every two days and in addition on the intervening days compounds were spiked into the media to increase drug concentration back to desired concentrations. Cultures were maintained in the presence of the compound, for a total of 10 days in the presence or absence of TGFβ.

[3] = clinical dose, cited from earlier work; for Cmax: read-out: Plasma Cmax

CSc1ccc(C(=O)/C=C/c2cc(C)c(OC(C)(C)C(=O)O)c(C)c2)cc1 [Elafibranor]
fraction unbound [1]: 0.02 | Protein binding within the fat culture medium [1]: highly protein-bound | CCL2 relative gene expression compared to GAPDH housekeeping gene ([2]; 65.0 uM ELF, listed as ELF): 3.92e-9 and 2.6e-9 and 6.31e-9 | CCL3 relative gene expression compared to GAPDH housekeeping gene ([2]; 65.0 uM ELF, listed as ELF): 3.39e-10 and 1.55e-10 and 3.45e-10 | CCL11 relative gene expression compared to GAPDH housekeeping gene ([2]; 65.0 uM ELF, listed as ELF): 4.99e-10 and 6.3e-10 and 6.52e-10 | CEBPB relative gene expression compared to GAPDH housekeeping gene ([2]; 65.0 uM ELF, listed as ELF): 1.2e-8 and 1.1e-8 and 2.65e-8 | CXCR4 relative gene expression compared to GAPDH housekeeping gene ([2]; 65.0 uM ELF, listed as ELF): 1.13e-9 and 7.47e-10 and 1.7e-9 | DCN relative gene expression compared to GAPDH housekeeping gene ([2]; 65.0 uM ELF, listed as ELF): 2.4e-7 and 1.65e-7 and 3.13e-7 | HGF relative gene expression compared to GAPDH housekeeping gene ([2]; 65.0 uM ELF, listed as ELF): 6.26e-10 and 2.45e-10 and 6.68e-10 | MMP1 relative gene expression compared to GAPDH housekeeping gene ([2]; 65.0 uM ELF, listed as ELF): 2.95e-9 and 8.23e-10 and 3.25e-9 | MMP9 relative gene expression compared to GAPDH housekeeping gene ([2]; 65.0 uM ELF, listed as ELF): 1.04e-8 and 2.47e-9 and 9.28e-9 | Cmax [3]: 13 µM

CC[C@H]1[C@@H](O)[C@@H]2[C@H](CC[C@]3(C)[C@@H]([C@H](C)CCC(=O)O)CC[C@@H]23)[C@@]2(C)CC[C@@H](O)C[C@@H]12 [Obeticholic acid]
fraction unbound [1]: < 0.01 | Protein binding within the fat culture medium [1]: highly protein-bound | CCL2 relative gene expression compared to GAPDH housekeeping gene ([2]; 12.5 uM OCA, listed as OCA): 5.71e-9 and 9.72e-9 and 5e-9 | CCL3 relative gene expression compared to GAPDH housekeeping gene ([2]; 12.5 uM OCA, listed as OCA): 1.11e-9 and 5.96e-10 and 3.11e-10 | CCL11 relative gene expression compared to GAPDH housekeeping gene ([2]; 12.5 uM OCA, listed as OCA): 3.39e-10 and 4.66e-10 and 1.94e-10 | CEBPB relative gene expression compared to GAPDH housekeeping gene ([2]; 12.5 uM OCA, listed as OCA): 3e-8 and 1.33e-8 and 1.62e-8 | CXCR4 relative gene expression compared to GAPDH housekeeping gene ([2]; 12.5 uM OCA, listed as OCA): 2.04e-9 and 8.2e-10 and 6.3e-10 | DCN relative gene expression compared to GAPDH housekeeping gene ([2]; 12.5 uM OCA, listed as OCA): 3.44e-7 and 1.39e-7 and 1.03e-7 | HGF relative gene expression compared to GAPDH housekeeping gene ([2]; 12.5 uM OCA, listed as OCA): 1.68e-9 and 5.3e-10 and 3.89e-10 | MMP1 relative gene expression compared to GAPDH housekeeping gene ([2]; 12.5 uM OCA, listed as OCA): 9.31e-10 and 1.58e-9 and 2.05e-9 | MMP9 relative gene expression compared to GAPDH housekeeping gene ([2]; 12.5 uM OCA, listed as OCA): 1.47e-8 and 5.79e-9 and 3e-9 | liver Cmax [3]: 12.5 µM | Cmax [3]: 0.5 µM

Source: PMC8443589, “Modelling human liver fibrosis in the context of non-alcoholic steatohepatitis using a microphysiological system” (Communications Biology, 2021)
